Measurements as given in paper PMC10058949, “Effect of N-Terminal Peptide Modifications on In Vitro and In Vivo Properties of ^177Lu-Labeled Peptide Analogs Targeting CCK2R” (Pharmaceutics, 2023).

Columns and labels:
[1] = Biodistribution 4 h p.i. in A431-CCK2R/A431-mock xenografted BALB/c nude mice; assay type: in vivo; conditions: female, BALB/c nude, mouse, in vivo, iv, 20 pmol, total radioactivity
Protocol: (§1) Then, after 7–11 days, when visible tumor xenografts were formed, groups of 5 mice were injected intravenously via a lateral tail vein with ~0.5 MBq of radiolabeled peptide, corresponding to 20 pmol of peptide, in a total volume of ~150 µL in PBS/0.5% BSA. Using an additional mouse per group, a blocking study was performed by co-injecting a 1000-fold molar excess of the respective peptide analog (20 nmol) together with the radiolabeled peptide. For quantification, a 1:1, 1:10 and 1:50 standard was prepared using aliquots of the injection solution mixed with PBS/0.5% BSA. Mice were euthanized by cervical dislocation 4 h after injection. Subsequently, a blood sample was collected, and different tissues were dissected. All samples, as well as the rest of the body were weighed, and the activity measured in the γ-counter together with the standard. Results were expressed as percentage of injected activity per gram of tissue (%IA/g).

[2] = system: A431-CCK2R/A431-mock xenografted BALB/c nude mice; assay: as above; assay type: in vivo; conditions: mouse, in vivo
Protocol: as §1

tissue to tissue ratio at 4 h [1]: 17 | tissue uptake at 4 h ([1]; uptake in A431-CCK2R xenografts): 32.1 ± 4.05 %ID/g | tissue uptake at 4 h ([1]; uptake in A431-mock xenografts): 0.22 ± 0.06 %ID/g | tissue uptake at 4 h ([1]; uptake in blood): 0.03 ± 0.01 %ID/g | tissue uptake at 4 h ([1]; uptake in femur): 0.22 ± 0.15 %ID/g | tissue uptake at 4 h ([1]; uptake in heart): 0.07 ± 0.02 %ID/g | tissue uptake at 4 h ([1]; uptake in intestine): 0.6 ± 0.12 %ID/g | tissue uptake at 4 h ([1]; uptake in kidneys): 1.96 ± 0.29 %ID/g | tissue uptake at 4 h ([1]; uptake in liver): 1.43 ± 0.18 %ID/g | tissue uptake at 4 h ([1]; uptake in lung): 0.22 ± 0.06 %ID/g | tissue uptake at 4 h ([1]; uptake in muscle): 0.06 ± 0.03 %ID/g | tissue uptake at 4 h ([1]; uptake in pancreas): 0.72 ± 0.14 %ID/g | tissue uptake at 4 h ([1]; uptake in spleen): 0.96 ± 0.3 %ID/g | tissue uptake at 4 h ([1]; uptake in stomach): 4.3 ± 0.95 %ID/g | improvement in tumor-to-kidney ratio versus [177Lu]Lu-DOTA-MGS5 [2]: more than 2 fold
Structure (SMILES): CCCC[C@@H](C(=O)N[C@@H](CC(=O)O)C(=O)N[C@@H](Cc1cccc2ccccc12)C(N)=O)N(C)C(=O)[C@H](Cc1c[nH]c2ccccc12)NC(=O)CCNC(=O)CC(O)CNC(=O)CC(O)CNC(=O)CN1CCN(CC(=O)O)CCN(CC(=O)O)CCN(CC(=O)O)CC1 (stereo partly drawn) [[^177Lu]Lu-2, metal not drawn]
